Measured values as given in ChEMBL document CHEMBL1201862, “PubChem BioAssay data set” (2004).
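Compound exposure: 48 hours, 5 concentrations, 96-well plates. GI50 is the concentration that inhibits growth by half.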 Calls of active or inactive are those of the source. Cut-off read from the data, not from the text of the source: active = GI50 up to about 1.1 µM and inactive = higher.

How the values were obtained:
Assay in all cases: DTP human tumour cell line panel, 48 h
A498 = system: A498
CCRF-CEM = system: CCRF-CEM
EKVX = system: EKVX
RPMI-8226 = system: RPMI-8226
OVCAR-5 = system: OVCAR-5
ACHN = system: ACHN
MDA-MB-435 = system: MDA-MB-435
BT-549 = system: BT-549
CAKI-1 = system: CAKI-1
K562 = system: K562
HOP-92 = system: HOP-92
SNB-19 = system: SNB-19
786-0 = system: 786-0
MDA-MB-231 = system: MDA-MB-231
SW-620 = system: SW-620
SK-MEL-5 = system: SK-MEL-5
OVCAR-3 = system: OVCAR-3
UACC-257 = system: UACC-257
DU-145 = system: DU-145
HCC 2998 = system: HCC 2998

Measured: GI50

O=c1c2ccccc2nc2[nH][nH]c(=S)n12
inactive: A498 > 100 µM | CCRF-CEM > 100 µM | EKVX 83.6 µM | RPMI-8226 > 100 µM | OVCAR-5 > 100 µM | ACHN > 100 µM | MDA-MB-435 > 100 µM | BT-549 > 100 µM | CAKI-1 > 100 µM | K562 > 100 µM | HOP-92 > 100 µM | SNB-19 > 100 µM | 786-0 > 100 µM | MDA-MB-231 > 100 µM | SW-620 > 100 µM | SK-MEL-5 > 100 µM | OVCAR-3 > 100 µM | UACC-257 > 100 µM | DU-145 > 100 µM

Nc1ccc(-c2nc3ccccc3s2)cc1C#Cc1ccccc1
inactive: A498 21 µM | CCRF-CEM 29.2 µM | EKVX 20.7 µM | RPMI-8226 20.9 µM | OVCAR-5 27.2 µM | ACHN 18.8 µM | MDA-MB-435 19.1 µM | BT-549 17.1 µM | CAKI-1 15.8 µM | K562 31 µM | HOP-92 18.8 µM | SNB-19 22.3 µM | 786-0 17.7 µM | MDA-MB-231 19.7 µM | SW-620 17.8 µM | SK-MEL-5 17 µM | OVCAR-3 15.5 µM | UACC-257 16 µM | DU-145 23.8 µM

COCOc1c(C(OCOC)c2cnc(Sc3ccccc3)n2C)ccc(OC)c1OC (stereo not given)
inactive: CCRF-CEM > 100 µM | EKVX > 100 µM | RPMI-8226 65 µM | OVCAR-5 > 100 µM | ACHN > 100 µM | MDA-MB-435 > 100 µM | BT-549 > 100 µM | CAKI-1 > 100 µM | K562 > 100 µM | HOP-92 > 100 µM | SNB-19 > 100 µM | 786-0 > 100 µM | MDA-MB-231 > 100 µM | SW-620 > 100 µM | SK-MEL-5 63.8 µM | OVCAR-3 > 100 µM | HCC 2998 > 100 µM | UACC-257 63.2 µM | DU-145 > 100 µM

COc1ccc2cc(NC(=O)N/N=C\c3ccc(Cl)cc3)ccc2c1
inactive: CCRF-CEM > 100 µM | EKVX > 100 µM | RPMI-8226 > 100 µM | OVCAR-5 > 100 µM | ACHN > 100 µM | MDA-MB-435 69.8 µM | BT-549 > 100 µM | CAKI-1 > 100 µM | K562 > 100 µM | HOP-92 > 100 µM | SNB-19 46.2 µM | 786-0 40 µM | MDA-MB-231 27.5 µM | SW-620 > 100 µM | OVCAR-3 > 100 µM | HCC 2998 > 100 µM | UACC-257 > 100 µM | DU-145 > 100 µM

O=C(N(C1=CCCC1)N(c1ccccc1)c1ccccc1)C(F)(F)F
inactive: A498 51.8 µM | CCRF-CEM 23.4 µM | EKVX 17.5 µM | OVCAR-5 27 µM | ACHN 17.3 µM | MDA-MB-435 21.1 µM | BT-549 29.9 µM | CAKI-1 20.2 µM | K562 19.5 µM | HOP-92 10.5 µM | SNB-19 30 µM | 786-0 27.7 µM | MDA-MB-231 16.9 µM | SW-620 20.2 µM | SK-MEL-5 16.3 µM | OVCAR-3 18.9 µM | HCC 2998 18.2 µM | UACC-257 21.6 µM | DU-145 30.8 µM

COC(=O)/C(=N\N)C(C(=O)C(=O)Nc1cccc([N+](=O)[O-])c1)c1nc2ccc(C(=O)c3ccccc3)cc2nc1O (stereo not given)
inactive: CCRF-CEM 22.3 µM | EKVX > 100 µM | OVCAR-5 > 100 µM | ACHN > 100 µM | MDA-MB-435 > 100 µM | BT-549 > 100 µM | CAKI-1 > 100 µM | HOP-92 35.7 µM | SNB-19 > 100 µM | 786-0 > 100 µM | MDA-MB-231 > 100 µM | SW-620 > 100 µM | SK-MEL-5 71 µM | OVCAR-3 > 100 µM | HCC 2998 > 100 µM | UACC-257 > 100 µM | DU-145 > 100 µM

COC(=O)/C=c1/c2ccccc2n2c1c1ccccc1[n+]2C
inactive: A498 4.18 µM | CCRF-CEM 3.3 µM | EKVX 3.08 µM | RPMI-8226 2.77 µM | OVCAR-5 4.6 µM | ACHN 3.92 µM | MDA-MB-435 4.2 µM | BT-549 3.3 µM | CAKI-1 15.1 µM | K562 3.64 µM | SNB-19 4.88 µM | 786-0 2.99 µM | MDA-MB-231 4.59 µM | SW-620 2.76 µM | SK-MEL-5 2.81 µM | OVCAR-3 3.55 µM | HCC 2998 2.35 µM | UACC-257 2.58 µM | DU-145 6.41 µM

CCOC(=O)Cc1ccc(Nc2nc3cc(F)c(F)cc3nc2C(=O)OCC)cc1
inactive: CCRF-CEM 42.8 µM | EKVX 22.8 µM | RPMI-8226 39.1 µM | OVCAR-5 > 100 µM | ACHN 18.4 µM | MDA-MB-435 65.6 µM | BT-549 55.6 µM | CAKI-1 19.1 µM | K562 35.7 µM | HOP-92 13.4 µM | SNB-19 48.2 µM | 786-0 > 100 µM | MDA-MB-231 2.34 µM | SW-620 43.7 µM | SK-MEL-5 34.5 µM | OVCAR-3 47.2 µM | HCC 2998 25.6 µM | UACC-257 44.2 µM | DU-145 25.9 µM

COC(=O)/C=C/[C@H]1[C@H](C)N1S(=O)(=O)c1ccc(C)cc1 (stereo not given in full)
inactive: A498 > 100 µM | CCRF-CEM > 100 µM | EKVX > 100 µM | RPMI-8226 51.6 µM | OVCAR-5 > 100 µM | ACHN 89.7 µM | MDA-MB-435 56.5 µM | BT-549 > 100 µM | CAKI-1 > 100 µM | K562 > 100 µM | SNB-19 > 100 µM | 786-0 82.4 µM | MDA-MB-231 > 100 µM | SW-620 80.4 µM | SK-MEL-5 > 100 µM | OVCAR-3 58.7 µM | HCC 2998 > 100 µM | UACC-257 > 100 µM | DU-145 > 100 µM

Cc1csc(-n2nc(C)cc2C)n1
inactive: A498 > 100 µM | CCRF-CEM > 100 µM | EKVX > 100 µM | RPMI-8226 > 100 µM | OVCAR-5 > 100 µM | ACHN > 100 µM | MDA-MB-435 > 100 µM | BT-549 > 100 µM | CAKI-1 > 100 µM | K562 > 100 µM | SNB-19 > 100 µM | 786-0 > 100 µM | MDA-MB-231 > 100 µM | SW-620 > 100 µM | SK-MEL-5 > 100 µM | OVCAR-3 > 100 µM | HCC 2998 > 100 µM | UACC-257 > 100 µM | DU-145 > 100 µM

COc1cc2c(cc1OC)C(=O)/C(=C/c1ccc([N+](=O)[O-])cc1)CC2
inactive: CCRF-CEM > 10 µM | EKVX > 10 µM | RPMI-8226 > 10 µM | OVCAR-5 > 10 µM | ACHN > 10 µM | MDA-MB-435 > 10 µM | BT-549 > 10 µM | CAKI-1 > 10 µM | K562 > 10 µM | HOP-92 > 10 µM | SNB-19 > 10 µM | 786-0 > 10 µM | MDA-MB-231 > 10 µM | SW-620 > 10 µM | SK-MEL-5 > 10 µM | OVCAR-3 > 10 µM | HCC 2998 > 10 µM | UACC-257 > 10 µM | DU-145 > 10 µM

COc1ccc2c(c1)CC1=C(O2)c2ccc(OC)cc2OC1
inactive: A498 > 100 µM | CCRF-CEM 31 µM | EKVX 15.2 µM | RPMI-8226 33.7 µM | OVCAR-5 49.4 µM | ACHN 18.2 µM | MDA-MB-435 17.5 µM | BT-549 21.5 µM | CAKI-1 18.7 µM | K562 44.8 µM | 786-0 21.3 µM | MDA-MB-231 39.6 µM | SW-620 16.6 µM | SK-MEL-5 18.2 µM | OVCAR-3 19.9 µM | HCC 2998 38.5 µM | UACC-257 19.2 µM | DU-145 44.1 µM

COc1ccc(N(C(=O)Nc2ccc(Cl)c(Cl)c2)c2ccccc2)cc1
inactive: A498 > 10 µM | CCRF-CEM > 10 µM | EKVX > 10 µM | OVCAR-5 > 10 µM | ACHN > 10 µM | MDA-MB-435 > 10 µM | BT-549 > 10 µM | CAKI-1 > 10 µM | K562 > 10 µM | HOP-92 > 10 µM | SNB-19 > 10 µM | 786-0 > 10 µM | MDA-MB-231 > 10 µM | SW-620 > 10 µM | SK-MEL-5 > 10 µM | OVCAR-3 > 10 µM | HCC 2998 > 10 µM | UACC-257 > 10 µM | DU-145 > 10 µM

COc1c(C)c(C/C=C(\C)CCCCO)c(OC)c2ccccc12
inactive: CCRF-CEM 28.8 µM | EKVX 61.5 µM | RPMI-8226 > 100 µM | OVCAR-5 83.8 µM | ACHN 36.1 µM | MDA-MB-435 32.6 µM | BT-549 46.7 µM | CAKI-1 17.9 µM | K562 29.4 µM | HOP-92 21.4 µM | SNB-19 > 100 µM | 786-0 38 µM | MDA-MB-231 40.6 µM | SW-620 57.3 µM | SK-MEL-5 16.9 µM | OVCAR-3 62.4 µM | HCC 2998 23.3 µM | UACC-257 33.8 µM | DU-145 45.3 µM

C=C1C(=O)CCC1C(=O)O (stereo not given)
inactive: A498 > 100 µM | CCRF-CEM > 100 µM | EKVX > 100 µM | RPMI-8226 > 100 µM | OVCAR-5 > 100 µM | ACHN > 100 µM | MDA-MB-435 > 100 µM | BT-549 > 100 µM | K562 > 100 µM | SNB-19 > 100 µM | 786-0 > 100 µM | MDA-MB-231 > 100 µM | SW-620 > 100 µM | SK-MEL-5 > 100 µM | OVCAR-3 > 100 µM | HCC 2998 > 100 µM | UACC-257 61.8 µM | DU-145 > 100 µM
